Data from PubChem BioAssay (NCI).
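Assay format: 96-well plates, 48-hour exposure. GI50 = concentration required for 50% inhibition of growth. TGI denotes the concentration required for complete inhibition of growth.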

Tests used:
Assay in all cases: NCI-60 cell line screen, 48 h
SK-MEL-5 melanoma = test system: SK-MEL-5 melanoma
UO-31 renal = test system: UO-31 renal
SNB-19 CNS = test system: SNB-19 CNS
SN12C renal = test system: SN12C renal
T-47D breast = test system: T-47D breast
COLO 205 colon = test system: COLO 205 colon
SR leukemia = test system: SR leukemia
HL-60(TB) leukemia = test system: HL-60(TB) leukemia
NCI-H226 lung = test system: NCI-H226 lung
OVCAR-5 ovarian = test system: OVCAR-5 ovarian
A549 NSCLC = test system: A549 NSCLC
HCC-2998 colon = test system: HCC-2998 colon
SF-295 CNS = test system: SF-295 CNS
OVCAR-3 ovarian = test system: OVCAR-3 ovarian
SK-MEL-2 melanoma = test system: SK-MEL-2 melanoma
NCI-H522 lung = test system: NCI-H522 lung
ACHN renal = test system: ACHN renal
SNB-75 CNS = test system: SNB-75 CNS
SW-620 colon = test system: SW-620 colon
MCF7 breast = test system: MCF7 breast
SF-268 CNS = test system: SF-268 CNS
HS 578T breast = test system: HS 578T breast
MDA-MB-231 breast = test system: MDA-MB-231 breast
MDA-MB-435 = test system: MDA-MB-435
NCI-H460 lung = test system: NCI-H460 lung
NCI/ADR-RES ovarian = test system: NCI/ADR-RES ovarian
786-0 renal = test system: 786-0 renal
HOP-92 NSCLC = test system: HOP-92 NSCLC
TK-10 renal = test system: TK-10 renal
NCI-H23 lung = test system: NCI-H23 lung
LOX IMVI melanoma = test system: LOX IMVI melanoma
KM12 colon = test system: KM12 colon
UACC-62 melanoma = test system: UACC-62 melanoma
HT29 colon = test system: HT29 colon
A498 renal = test system: A498 renal
RPMI-8226 leukemia = test system: RPMI-8226 leukemia
HCT-15 colon = test system: HCT-15 colon
U251 CNS = test system: U251 CNS
HCT-116 colon = test system: HCT-116 colon
MOLT-4 leukemia = test system: MOLT-4 leukemia
OVCAR-4 ovarian = test system: OVCAR-4 ovarian
M14 melanoma = test system: M14 melanoma
BT-549 breast = test system: BT-549 breast
MALME-3M melanoma = test system: MALME-3M melanoma
IGROV1 ovarian = test system: IGROV1 ovarian
CAKI-1 renal = test system: CAKI-1 renal
SK-MEL-28 melanoma = test system: SK-MEL-28 melanoma
OVCAR-8 ovarian = test system: OVCAR-8 ovarian
DU-145 prostate = test system: DU-145 prostate
SK-OV-3 ovarian = test system: SK-OV-3 ovarian
EKVX NSCLC = test system: EKVX NSCLC
SF-539 CNS = test system: SF-539 CNS
RXF 393 renal = test system: RXF 393 renal
PC-3 prostate = test system: PC-3 prostate
K-562 leukemia = test system: K-562 leukemia
UACC-257 melanoma = test system: UACC-257 melanoma
CCRF-CEM leukemia = test system: CCRF-CEM leukemia
HOP-62 NSCLC = test system: HOP-62 NSCLC

## CCN(CC)c1ccc(/C=C\c2cc(C)c3cc(C)ccc3n2)cc1
SK-MEL-5 melanoma
  GI50: 1710 nM
  TGI: 4.57 µM
UO-31 renal
  GI50: 6.97 µM
  TGI: > 100 µM
SNB-19 CNS
  GI50: 51.7 µM
  TGI: > 100 µM
SN12C renal
  GI50: 11.7 µM
  TGI: > 100 µM
T-47D breast
  GI50: 1.11 µM
  TGI: > 100 µM
COLO 205 colon
  GI50: 3.67 µM
  TGI: 18.5 µM
SR leukemia
  GI50: 3410 nM
  TGI: > 100 µM
HL-60(TB) leukemia
  GI50: 3230 nM
  TGI: 7.66 µM
NCI-H226 lung
  GI50: 7.29 µM
  TGI: > 100 µM
OVCAR-5 ovarian
  GI50: 17.7 µM
  TGI: > 100 µM
A549 NSCLC
  GI50: 4.98 µM
  TGI: > 100 µM
HCC-2998 colon
  GI50: 4.44 µM
  TGI: 23.8 µM
SF-295 CNS
  GI50: 4.19 µM
  TGI: > 100 µM
OVCAR-3 ovarian
  GI50: 3.24 µM
  TGI: 12.4 µM
SK-MEL-2 melanoma
  GI50: 7.24 µM
  TGI: 81 µM
NCI-H522 lung
  GI50: 1490 nM
  TGI: 5.19 µM
ACHN renal
  GI50: 6.23 µM
  TGI: > 100 µM
SNB-75 CNS
  GI50: 4.83 µM
  TGI: > 100 µM
SW-620 colon
  GI50: 3.52 µM
  TGI: > 100 µM
MCF7 breast
  GI50: 2.95 µM
  TGI: > 100 µM
SF-268 CNS
  GI50: 6.48 µM
  TGI: > 100 µM
HS 578T breast
  GI50: 5.32 µM
  TGI: 48.4 µM
MDA-MB-231 breast
  GI50: 16.2 µM
  TGI: > 100 µM
MDA-MB-435
  GI50: 2100 nM
  TGI: > 100 µM
NCI-H460 lung
  GI50: 3.51 µM
  TGI: 24.5 µM
NCI/ADR-RES ovarian
  GI50: 3100 nM
  TGI: > 100 µM
786-0 renal
  GI50: 3.98 µM
  TGI: > 100 µM
HOP-92 NSCLC
  GI50: 1660 nM
  TGI: 7.06 µM
TK-10 renal
  GI50: 5.11 µM
  TGI: 36.7 µM
NCI-H23 lung
  GI50: 5.37 µM
  TGI: > 100 µM
LOX IMVI melanoma
  GI50: 4.29 µM
  TGI: > 100 µM
KM12 colon
  GI50: 3.39 µM
  TGI: 29.6 µM
UACC-62 melanoma
  GI50: 3.92 µM
  TGI: > 100 µM
HT29 colon
  GI50: 2.65 µM
  TGI: 11.4 µM
A498 renal
  GI50: 2190 nM
  TGI: 8.33 µM
RPMI-8226 leukemia
  GI50: 3130 nM
  TGI: 8.7 µM
HCT-15 colon
  GI50: 2.32 µM
  TGI: > 100 µM
U251 CNS
  GI50: 5.35 µM
  TGI: > 100 µM
HCT-116 colon
  GI50: 3.2 µM
  TGI: > 100 µM
MOLT-4 leukemia
  GI50: 6.12 µM
  TGI: > 100 µM
OVCAR-4 ovarian
  GI50: 9.63 µM
  TGI: > 100 µM
M14 melanoma
  GI50: 3.89 µM
  TGI: > 100 µM
BT-549 breast
  GI50: 5.07 µM
  TGI: > 100 µM
MALME-3M melanoma
  GI50: 4.68 µM
  TGI: > 100 µM
IGROV1 ovarian
  GI50: 7.34 µM
  TGI: > 100 µM
CAKI-1 renal
  GI50: 5.55 µM
  TGI: > 100 µM
SK-MEL-28 melanoma
  GI50: 5.17 µM
  TGI: > 100 µM
OVCAR-8 ovarian
  GI50: 4.79 µM
  TGI: > 100 µM
DU-145 prostate
  GI50: 9.08 µM
  TGI: > 100 µM
SK-OV-3 ovarian
  GI50: 4.63 µM
  TGI: > 100 µM
EKVX NSCLC
  GI50: 45.6 µM
  TGI: > 100 µM
SF-539 CNS
  GI50: 3.79 µM
  TGI: 46.8 µM
RXF 393 renal
  GI50: 3.99 µM
  TGI: > 100 µM
PC-3 prostate
  GI50: 3.69 µM
  TGI: 81.1 µM

## COc1ccc(-n2c(SCc3cc(OC)c(OC)c(OC)c3)nc3ccc(C)cc3c2=O)c(OC)c1
SK-MEL-5 melanoma
  GI50: 3390 nM
  TGI: > 100 µM
UO-31 renal
  GI50: 2.76 µM
  TGI: > 100 µM
SNB-19 CNS
  GI50: 6.99 µM
  TGI: > 100 µM
SN12C renal
  GI50: 5.1 µM
  TGI: > 100 µM
T-47D breast
  GI50: 6.39 µM
  TGI: > 100 µM
COLO 205 colon
  GI50: 3.87 µM
  TGI: 11.9 µM
SR leukemia
  GI50: 1870 nM
  TGI: 25.5 µM
HL-60(TB) leukemia
  GI50: 2140 nM
  TGI: 4.77 µM
NCI-H226 lung
  GI50: > 100 µM
  TGI: > 100 µM
OVCAR-5 ovarian
  GI50: 7.93 µM
  TGI: > 100 µM
A549 NSCLC
  GI50: 4.18 µM
  TGI: > 100 µM
HCC-2998 colon
  GI50: 6.75 µM
  TGI: > 100 µM
SF-295 CNS
  GI50: 3.22 µM
  TGI: > 100 µM
OVCAR-3 ovarian
  GI50: 2.84 µM
  TGI: 7.04 µM
SK-MEL-2 melanoma
  GI50: 3.73 µM
  TGI: 85.1 µM
NCI-H522 lung
  GI50: 3580 nM
  TGI: 72.7 µM
ACHN renal
  GI50: 7.49 µM
  TGI: > 100 µM
SNB-75 CNS
  GI50: 3.14 µM
  TGI: > 100 µM
SW-620 colon
  GI50: 4.49 µM
  TGI: > 100 µM
MCF7 breast
  GI50: 3.23 µM
  TGI: > 100 µM
SF-268 CNS
  GI50: 7.88 µM
  TGI: > 100 µM
HS 578T breast
  GI50: 3.31 µM
  TGI: > 100 µM
MDA-MB-231 breast
  GI50: 4.15 µM
  TGI: > 100 µM
MDA-MB-435
  GI50: 1050 nM
  TGI: 3.07 µM
K-562 leukemia
  GI50: 2990 nM
  TGI: > 100 µM
NCI-H460 lung
  GI50: 3.68 µM
  TGI: > 100 µM
NCI/ADR-RES ovarian
  GI50: 2680 nM
  TGI: > 100 µM
786-0 renal
  GI50: 4.99 µM
  TGI: > 100 µM
HOP-92 NSCLC
  GI50: 2580 nM
  TGI: > 100 µM
TK-10 renal
  GI50: 93.8 µM
  TGI: > 100 µM
NCI-H23 lung
  GI50: 5.24 µM
  TGI: > 100 µM
LOX IMVI melanoma
  GI50: 5.23 µM
  TGI: > 100 µM
KM12 colon
  GI50: 3.42 µM
  TGI: > 100 µM
UACC-62 melanoma
  GI50: 5.19 µM
  TGI: > 100 µM
HT29 colon
  GI50: 4.04 µM
  TGI: > 100 µM
A498 renal
  GI50: 2250 nM
  TGI: 40.3 µM
RPMI-8226 leukemia
  GI50: 2440 nM
  TGI: > 100 µM
HCT-15 colon
  GI50: 4.2 µM
  TGI: > 100 µM
U251 CNS
  GI50: 4.86 µM
  TGI: > 100 µM
HCT-116 colon
  GI50: 3.85 µM
  TGI: > 100 µM
MOLT-4 leukemia
  GI50: 3.15 µM
  TGI: > 100 µM
OVCAR-4 ovarian
  GI50: 4.65 µM
  TGI: > 100 µM
UACC-257 melanoma
  GI50: 7.81 µM
  TGI: > 100 µM
M14 melanoma
  GI50: 2.7 µM
  TGI: 8.55 µM
CCRF-CEM leukemia
  GI50: 2380 nM
  TGI: 6.69 µM
BT-549 breast
  GI50: 4.31 µM
  TGI: > 100 µM
MALME-3M melanoma
  GI50: 2.97 µM
  TGI: > 100 µM
IGROV1 ovarian
  GI50: 7.2 µM
  TGI: > 100 µM
CAKI-1 renal
  GI50: 2.97 µM
  TGI: > 100 µM
SK-MEL-28 melanoma
  GI50: 5.79 µM
  TGI: > 100 µM
OVCAR-8 ovarian
  GI50: 5.14 µM
  TGI: > 100 µM
DU-145 prostate
  GI50: 3.72 µM
  TGI: > 100 µM
SK-OV-3 ovarian
  GI50: 4.96 µM
  TGI: > 100 µM
HOP-62 NSCLC
  GI50: 18.8 µM
  TGI: > 100 µM
SF-539 CNS
  GI50: 2.88 µM
  TGI: 7.82 µM
RXF 393 renal
  GI50: 4 µM
  TGI: > 100 µM
PC-3 prostate
  GI50: 3.63 µM
  TGI: > 100 µM
